Data taken from the supplement of paper PMC10307832.

Legend:
Experiment in all cases: relative viability (nuclei count vs DMSO), 5 days (fraction); higher = more cells survive
Sunitinib + Trametinib = compound: CCN(CC)CCNC(=O)c1c(C)[nH]c(/C=C2\C(=O)Nc3ccc(F)cc32)c1C [Sunitinib] + CC(=O)Nc1cccc(-n2c(=O)n(C3CC3)c(=O)c3c(Nc4ccc(I)cc4F)n(C)c(=O)c(C)c32)c1 [Trametinib] (partner 0.02 µM)
Summary of the method: (§1)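 Relative viability divides the nuclei count in treated wells by that in vehicle wells. Lung cancer cell lines were seeded in 1536-well plates, dosed by pin tool the next day, and fixed and stained after 5 days in one step with final 0.05% Triton X-100, 1% formaldehyde and 1 ug/ml Hoechst. Dosing was a single drug or a fixed anchor-drug dose plus five library-drug doses (not always all listed) in √10 steps, and values are medians of duplicate plates imaged at 4×.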

Sunitinib + Bortezomib = compound: CCN(CC)CCNC(=O)c1c(C)[nH]c(/C=C2\C(=O)Nc3ccc(F)cc32)c1C [Sunitinib] + CC(C)C[C@H](NC(=O)[C@H](Cc1ccccc1)NC(=O)c1cnccn1)B(O)O [Bortezomib] (partner 0.002 µM)
Summary of the method: as §1

Sunitinib + Pictilisib = compound: CCN(CC)CCNC(=O)c1c(C)[nH]c(/C=C2\C(=O)Nc3ccc(F)cc32)c1C [Sunitinib] + CS(=O)(=O)N1CCN(Cc2cc3nc(-c4cccc5[nH]ncc45)nc(N4CCOCC4)c3s2)CC1 [Pictilisib] (partner 1 µM)
Summary of the method: as §1

Sunitinib + Olaparib = compound: CCN(CC)CCNC(=O)c1c(C)[nH]c(/C=C2\C(=O)Nc3ccc(F)cc32)c1C [Sunitinib] + O=C(c1cc(Cc2n[nH]c(=O)c3ccccc23)ccc1F)N1CCN(C(=O)C2CC2)CC1 [Olaparib] (partner 8 µM)
Summary of the method: as §1

Cell Line | relative viability (Sunitinib + Trametinib; first compound 0.02 µM) | relative viability (Sunitinib + Trametinib; first compound 0.06325 µM) | relative viability (Sunitinib + Trametinib; first compound 0.2 µM) | relative viability (Sunitinib + Trametinib; first compound 0.6325 µM) | relative viability (Sunitinib + Trametinib; first compound 2 µM) | relative viability (Sunitinib + Bortezomib; first compound 0.02 µM) | relative viability (Sunitinib + Bortezomib; first compound 0.06325 µM) | relative viability (Sunitinib + Bortezomib; first compound 0.2 µM) | relative viability (Sunitinib + Bortezomib; first compound 0.6325 µM) | relative viability (Sunitinib + Bortezomib; first compound 2 µM) | relative viability (Sunitinib + Pictilisib; first compound 0.02 µM) | relative viability (Sunitinib + Pictilisib; first compound 0.06325 µM) | relative viability (Sunitinib + Pictilisib; first compound 0.2 µM) | relative viability (Sunitinib + Pictilisib; first compound 0.6325 µM) | relative viability (Sunitinib + Pictilisib; first compound 2 µM) | relative viability (Sunitinib + Olaparib; first compound 0.02 µM) | relative viability (Sunitinib + Olaparib; first compound 0.06325 µM) | relative viability (Sunitinib + Olaparib; first compound 0.2 µM) | relative viability (Sunitinib + Olaparib; first compound 0.6325 µM) | relative viability (Sunitinib + Olaparib; first compound 2 µM)
CAL-12T | 0.322 | 0.356 | 0.4 | 0.407 | 0.268 | 1.04 | 1.06 | 1.07 | 1.21 | 1.05 | 0.47 | 0.58 | 0.431 | 0.628 | 0.414 | 0.718 | 0.755 | 0.791 | 0.817 | 0.772
COR-L23 | 0.466 | 0.57 | 0.548 | 0.656 | 0.547 | 0.995 | 1.02 | 1 | 1.13 | – | 0.788 | 1.04 | 0.97 | 0.881 | 0.812 | 0.317 | 0.349 | 0.361 | 0.385 | 0.351
COR-L 105 | 0.45 | 0.465 | 0.452 | 0.469 | 0.44 | 0.977 | 0.877 | 0.923 | 1.01 | 0.823 | 0.371 | 0.415 | 0.569 | 0.364 | 0.409 | 0.591 | 0.695 | 0.881 | 0.651 | 0.837
ChaGo-K-1 | 0.814 | 0.919 | 0.977 | 0.889 | 0.888 | 1.04 | 1.03 | 1.03 | 0.977 | 1.05 | 0.766 | 0.786 | 0.774 | 0.624 | 0.756 | 0.483 | 0.466 | 0.414 | 0.435 | 0.441
EKVX | 0.314 | 0.357 | 0.412 | 0.345 | 0.298 | 1.07 | 1.04 | 1.18 | 1.06 | 1.09 | 0.456 | 0.437 | 0.578 | 0.495 | 0.577 | 0.941 | 0.991 | 0.952 | 0.957 | 0.97
EMC-BAC-2 | 0.868 | 0.932 | 0.966 | 0.99 | 1.12 | 1.06 | 1.14 | 1.26 | 1.05 | 1.12 | 0.501 | 0.601 | 0.589 | 0.548 | 0.565 | 0.462 | 0.52 | 0.539 | 0.529 | 0.582
EPLC-272H | 0.253 | 0.271 | 0.287 | 0.283 | 0.288 | 0.648 | 1.17 | 0.915 | 1.05 | 0.851 | 0.313 | 0.336 | 0.297 | 0.338 | 0.334 | 0.764 | 0.998 | 1.01 | 0.746 | 0.388
H3255 | 0.611 | 0.658 | 0.652 | 0.614 | 0.597 | 0.817 | – | 0.827 | 0.995 | 0.822 | 0.465 | 0.495 | 0.519 | 0.514 | 0.495 | 0.541 | 0.605 | 0.6 | 0.593 | 0.56
